Assay results: patent publication US6921531B2, “Administering bifunctional molecules containing a drug moiety and presenter protein ligand for therapy” (The Board of Trustees of the Leland Stanford Junior …, priority 1998, dated 2005)
“Also recorded” adds a separate entry of the source. Read-outs that look alike come from different tables or passages of the source.

Experiments:
Fyn SH2 domain = molecular target: T1, Fyn SH2 domain (Homo sapiens, UniProt P06241); assay: Binding constants (Kd) for Fyn SH2 domain, isothermal titration calorimetry; conditions: ITC
T1 construct: The Fyn, Lck and PLC SH2 domains were expressed in bacteria as GST fusion proteins; GST (cleaved yes); made in house; host or cells: bacteria
Protocol: SLFpYEEI and FKpYEEI are bifunctional molecules that can bind FKBP12 and FKBP52 as well as the Fyn SH2 domain (FIG. 2). The binding constants (Kd values) of the bifunctional molecules for the three proteins were measured using isothermal titration calorimetry (ITC) (Table 1).
FIG. 6 is a graph of the competition binding curves for the Fyn SH2 domain and FKpYEEI as well as the Fyn SH2 domain and the peptide pYEEI in the absence and the presence of FKBP52. Fyn SH2 domain was incubated with peptide beads and increasing concentrations of FKpYEEI in the absence or presence of FKBP52. Specifically, in this assay, in 100 L binding reactions, radioactively labeled Fyn SH2 domain (200 nM) was incubated with 7.5 L of a 1:1 pYEEI bead slurry. Increasing concentrations of FKpYEEI or pYEEI (0.1-20.0 M) were added in the presence or absence of FKBP52 (4.5 M). The binding reactions were rotated at room temperature for 2 hours, centrifuged and analysed as described above. Half maximal binding (IC50) is observed at 750 riM FKpYEEI in the absence of FKBP52. […] Using ITC, the binding constant (Kd) for Fyn SH2 domain binding to the FKpYEEI-FKBP52 complex was determined.
FIG. 13 is a graph of the competition binding curves for the Fyn SH2 domain and SLFpYEEI in the absence and the presence of FKBP12. Fyn SH2 domain was incubated with increasing concentrations of SLFpYEEI in the absence or presence of FKBP12. In this assay, in 100 L binding reactions, radioactively labeled Fyn SH2 domain (200 nM) was incubated with 7.5 L of a 1:1 pYEEI bead slurry. Increasing concentrations of SLFpYEEI (0.1-20.0 M) were added in the presence or absence of FKBP12 (20 M). The binding reactions were rotated at room temperature for 2 hours, centrifuged and analysed as described above. […] This effect was confirmed by ITC.

PLC SH2 domain = assay: Competition binding assay of radioactive PLC SH2 domain to pYEEI beads; conditions: 1.0-1.5 μM ligand plus FKBP12 (0.5-4.0 μM or 2.0 μM)
From the text: The pYEEI peptide was coupled to Affi-Gel 10 beads (Biorad) via its amino-group. The Fyn, Lck and PLC SH2 domains were expressed in bacteria as GST fusion proteins. The linker between the GST protein and the SH2 domain contained a thrombin cleavage site and a protein kinase A (PKA) phosphorylation site. The fusion protein on glutathione beads was radioactively labeled at the PKA phosphorylation site using PKA (Sigma). After extensive washing of the beads, the radioactive SH2 domain was released by cleavage with thrombin (Sigma). In a typical binding assay, 7.5 L of a 1:1 peptide bead slurry were incubated with the radioactive SH2 domain (200 nM) for 2 hours in 100 L of binding buffer (20 mM Tris pH7.2; 150 mM NaCl). In order to separate the radioactive protein bound to the beads, the binding reaction was transfered into a PCR tube (USA Scientific Plastic), whose bottom had been punctured with a 26gauge needle. The PCR tube was placed in a 0.5 mL Eppendorf tube which in turn was placed in a regular 1.5 mL Eppendorf tube. The tubes were spun for 1 second at maximal speed in an Eppendorf centrifuge resulting in the separation of the beads remaining in the PCR tube and the supernatant, which was collected in the 0.5 ml Eppendorf tube. The beads were resuspended in […] PBS and the radioactivity was counted in a liquid scintillation counter after addition of 3 ml scintillation fluid. The radioactivity remaining in the 100 L supernatant was counted in the same way. It was determined that under the conditions described 65% Fyn, 25% PLC and 15%Lck SH2 domain were bound to the beads. […]
The binary complex of FKpYEEI and FKBP 12 has the same affinity for the Fyn SH2 domain as free FKpYEEI (see FIG. 7). […] The binding reactions were rotated at room temperature for 2 hours, centrifuged and analysed as described above.
In this assay, in 100 L binding reactions, radioactively labeled PLC SH2 domain (400 nM) was incubated with 7.5 L of a 1:1 pYEEI bead slurry. […] The binding reactions were rotated at room temperature for 2 hours, centrifuged and analysed as described above. […]

[1] = ligand alone, no presenter protein, read-out: Binding constant (Kd) for Fyn SH2 domain, free ligand

T1 sequence (P06241 149-246 limits assumed): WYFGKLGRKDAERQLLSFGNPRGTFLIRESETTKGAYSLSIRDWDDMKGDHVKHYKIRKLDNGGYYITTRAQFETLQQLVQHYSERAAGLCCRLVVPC

| SMILES | Kd (Fyn SH2 domain; in complex with FKBP52, read-out: Kd for Fyn SH2 domain binding to the FKpYEEI-FKBP52 complex) | Kd (Fyn SH2 domain; [1]) | Effect of FKBP12 on affinity for the PLC SH2 domain (PLC SH2 domain) |
| --- | --- | --- | --- |
| CC[C@H](C)[C@H](NC(=O)[C@H](CCC(=O)O)NC(=O)[C@H](CCC(=O)O)NC(=O)[C@H](Cc1ccc(OP(=O)(O)O)cc1)NC(=O)OCC[C@@H]1/C=C(\C)C[C@H](C)C[C@H](OC)[C@H]2O[C@@](O)(C(=O)C(=O)N3CCCC[C@H]3C(=O)O[C@H](/C(C)=C/[C@@H]3CC[C@@H](O)[C@H](OC)C3)[C@H](C)[C@@H](O)CC1=O)[C@H](C)C[C@@H]2OC)C(=O)O [FKpYEEI] | 130 nM | 520 nM | decreased affinity for the PLC SH2 domain; also recorded: reducing binding to the PLC SH2 domain |
| CC[C@H](C)[C@H](NC(=O)[C@H](CCC(=O)O)NC(=O)[C@H](CCC(=O)O)NC(=O)[C@H](Cc1ccc(OP(=O)(O)O)cc1)NC(=O)COc1cccc([C@@H](CCc2ccc(OC)c(OC)c2)OC(=O)[C@@H]2CCCCN2C(=O)C(=O)C(C)(C)CC)c1)C(=O)O [SLFpYEEI] | – | 183 nM | reduced binding |
